Assay results as given in article PMC10814857, “Functional Classification and Interaction Selectivity Landscape of the Human SH3 Domain Superfamily” (Cells, 2024).
Values joined by “and” are separate entries in the source; they are usually repeats but may differ in a detail not shown here. Equal entries are not always repeated. Where two headings read alike, the source gives them in different places. Peptide text beside a SMILES is read from it.

Columns and labels:
Experiment in all cases: Fluorescence polarization SH3 domain-PRP binding
[1] = target: T1, ITSN1-4 SH3 domain (aa 1070-1138) (Homo sapiens, UniProt Q15811); settings: FP, 0.2 µM fluorescein-labeled peptide, SH3 domain 0-200 µM, Tris/HCl pH 7.5, 25 °C, quadratic fit
T1 construct: 1070-1138; GST (N); made in house; host or cells: Escherichia coli CodonPlus, Rosetta, BL21(DE3)
T1 sequence (Q15811 1070-1138): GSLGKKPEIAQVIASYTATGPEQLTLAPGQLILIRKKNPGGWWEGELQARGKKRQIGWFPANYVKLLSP
Protocol: (§1) The interaction between fluorescein-labeled proline-rich peptides (0.2 µM) and increasing concentrations of SH3 domains (ranging from 0 to 200 µM) was measured in a buffer (containing 30 mM Tris/HCl (pH 7.5), 5 mM MgCl2, and 3 mM DTT at 25 °C) in a total volume of 200 µL using a Fluoromax 4 fluorimeter in polarization mode and a quartz glass fluorescence cuvette (Hellma Ultra-Micro Cuvette 105.250-QS, Thermo Fisher Scientific, Waltham, MA USA). Excitation was performed at 470 nm and emission was measured at 560 nm. Dissociation constants (Kd) were determined by fitting the concentration-dependent binding curve to a quadratic ligand binding equation.
(§2) Fluorescence polarization measurements were performed to determine the binding affinities of SH3 domain–PRP interaction pairs from the dot blot analysis. SH3 proteins were titrated at increasing concentrations against fluorescent PRPs, which were kept at a constant concentration of 0.2 µM. GRB2-2^W193K, which is defective in the binding of PRPs such as RP1, was used as a negative control as previously described. […] The resulting data (Figure S6) allowed the evaluation of equilibrium dissociation constants (Kd) for 45 interactions between the SH3 domains and the PRPs (Figure 2B; Table S6).
(§3) Figure S6. Interactions of the SH3 domains with fluorescent PRPs measured by fluorescence polarization.
(§4) Fluorescent peptides (0.2 µM) were titrated with increasing concentrations of the corresponding SH3 domains.
(§5) GRB2-2W193K, defective in the binding of PRPs such as RP1, was used as a negative control as previously described. The x-axis represents SH3 domain concentrations as GST fusion proteins in µM, while the y-axis represents fluorescence polarization. The equilibrium dissociation constants (Kd) for the respective measurements were determined by fitting the titration curves to a quadratic ligand-binding equation (solid lines). All Kd values are […]
(§6) Error bars are derived from the fitting errors.

[2] = target: T2, ITSN1-5 SH3 domain (aa 1155-1214) (Homo sapiens, UniProt Q15811); settings: FP, 0.2 µM fluorescein-labeled peptide, SH3 domain 0-200 µM, Tris/HCl pH 7.5, 25 °C, quadratic fit
T2 construct: 1155-1214; GST (N); made in house; host or cells: Escherichia coli CodonPlus, Rosetta, BL21(DE3)
T2 sequence (Q15811 1155-1214): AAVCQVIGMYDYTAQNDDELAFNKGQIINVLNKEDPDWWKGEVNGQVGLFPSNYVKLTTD
Protocol: as §1, §2, §3, §4, §5, §6

[3] = target: T3, NCK1-1 SH3 domain (aa 2-61) (Homo sapiens, UniProt P16333); settings: FP, 0.2 µM fluorescein-labeled peptide, SH3 domain 0-200 µM, Tris/HCl pH 7.5, 25 °C, quadratic fit
T3 construct: 2-61; GST (N); made in house; host or cells: Escherichia coli CodonPlus, Rosetta, BL21(DE3)
Protocol: as §1, §2, §3, §4, §5, §6

[4] = target: T4, NCK1-2 SH3 domain (aa 106-165) (Homo sapiens, UniProt P16333); settings: FP, 0.2 µM fluorescein-labeled peptide, SH3 domain 0-200 µM, Tris/HCl pH 7.5, 25 °C, quadratic fit
T4 construct: 106-165; GST (N); made in house; host or cells: Escherichia coli CodonPlus, Rosetta, BL21(DE3)
Protocol: as §1, §2, §3, §4, §5, §6

[5] = target: T5, NCK1-3 SH3 domain (aa 190–252) (Homo sapiens, UniProt P16333); settings: NCK1-3 (wt), FP, 0.2 µM fluorescein-labeled peptide, SH3 domain 0-200 µM, Tris/HCl pH 7.5, 25 °C, quadratic fit
T5 construct: 190–252; GST (N); made in house; host or cells: Escherichia coli CodonPlus, Rosetta, BL21(DE3)
Protocol: as §1, §2, §3, §4, §5, §6

NPHP1 SH3 domain = target: T6, NPHP1 SH3 domain (Homo sapiens, UniProt O15259); settings: FP, 0.2 µM fluorescein-labeled peptide, SH3 domain 0-200 µM, Tris/HCl pH 7.5, 25 °C, quadratic fit
T6 construct: GST (N); made in house; host or cells: Escherichia coli CodonPlus, Rosetta, BL21(DE3)
T6 sequence (O15259 152-212 limits assumed): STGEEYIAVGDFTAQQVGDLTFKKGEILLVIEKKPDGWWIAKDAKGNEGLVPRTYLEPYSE
Protocol: as §1, §2, §3, §4, §5, §6

[6] = target: T7, RASA1 SH3 domain (aa 279–341) (Homo sapiens, UniProt P20936); settings: FP, 0.2 µM fluorescein-labeled peptide, SH3 domain 0-200 µM, Tris/HCl pH 7.5, 25 °C, quadratic fit
T7 construct: 279–341; GST (N); made in house; host or cells: Escherichia coli CodonPlus, Rosetta, BL21(DE3)
T7 sequence (P20936 279-341): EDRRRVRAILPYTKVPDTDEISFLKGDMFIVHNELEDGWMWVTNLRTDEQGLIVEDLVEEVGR
Protocol: as §1, §2, §3, §4, §5, §6

[7] = target: T8, RIMBP3B-1 SH3 domain (aa 832-899) (Homo sapiens, UniProt A6NNM3); settings: FP, 0.2 µM fluorescein-labeled peptide, SH3 domain 0-200 µM, Tris/HCl pH 7.5, 25 °C, quadratic fit
T8 construct: 832-899; GST (N); made in house; host or cells: Escherichia coli CodonPlus, Rosetta, BL21(DE3)
T8 sequence (A6NNM3 832-899): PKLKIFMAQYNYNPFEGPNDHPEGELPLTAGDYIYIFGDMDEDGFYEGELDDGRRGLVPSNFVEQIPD
Protocol: as §1, §2, §3, §4, §5, §6

[8] = target: T9, SH3PXD2A-1 SH3 domain (aa 166-225) (Homo sapiens, UniProt Q5TCZ1); settings: FP, 0.2 µM fluorescein-labeled peptide, SH3 domain 0-200 µM, Tris/HCl pH 7.5, 25 °C, quadratic fit
T9 construct: 166-225; GST (N); made in house; host or cells: Escherichia coli CodonPlus, Rosetta, BL21(DE3)
T9 sequence (Q5TCZ1 166-225): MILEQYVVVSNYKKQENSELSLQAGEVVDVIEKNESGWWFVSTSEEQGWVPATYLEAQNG
Protocol: as §1, §2, §3, §4, §5, §6

[9] = target: T10, SNX9 SH3 domain (aa 1-62) (Homo sapiens, UniProt Q9Y5X1); settings: FP, 0.2 µM fluorescein-labeled peptide, SH3 domain 0-200 µM, Tris/HCl pH 7.5, 25 °C, quadratic fit
T10 construct: 1-62; GST (N); made in house; host or cells: Escherichia coli CodonPlus, Rosetta, BL21(DE3)
T10 sequence (Q9Y5X1 1-62): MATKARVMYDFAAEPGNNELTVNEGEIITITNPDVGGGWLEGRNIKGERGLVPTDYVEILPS
Protocol: as §1, §2, §3, §4, §5, §6

[10] = target: T11, SORBS1-1 SH3 domain (aa 793-852) (Homo sapiens, UniProt Q9BX66); settings: FP, 0.2 µM fluorescein-labeled peptide, SH3 domain 0-200 µM, Tris/HCl pH 7.5, 25 °C, quadratic fit
T11 construct: 793-852; GST (N); made in house; host or cells: Escherichia coli CodonPlus, Rosetta, BL21(DE3)
T11 sequence (Q9BX66 793-852): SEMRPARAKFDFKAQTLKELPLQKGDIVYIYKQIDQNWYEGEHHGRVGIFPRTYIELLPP
Protocol: as §1, §2, §3, §4, §5, §6

[11] = target: T12, SRC SH3 domain (aa 77-140) (Homo sapiens, UniProt P12931); settings: FP, 0.2 µM fluorescein-labeled peptide, SH3 domain 0-200 µM, Tris/HCl pH 7.5, 25 °C, quadratic fit
T12 construct: 77-140; GST (N); made in house; host or cells: Escherichia coli CodonPlus, Rosetta, BL21(DE3)
T12 sequence (P12931 77-140 limits assumed): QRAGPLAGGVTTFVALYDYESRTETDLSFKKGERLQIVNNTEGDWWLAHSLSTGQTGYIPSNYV
Protocol: as §1, §2, §3, §4, §5, §6

SMILES | Kd [1] | Kd [2] | Kd ([3]; read-out: Kd) | Kd ([4]; read-out: Kd) | Kd ([5]; read-out: Kd) | Kd (NPHP1 SH3 domain) | Kd [6] | Kd [7] | Kd [8] | Kd [9] | Kd [10] | Kd [11] | Kd [3] | Kd [4] | Kd [5]
C[C@H](N)C(=O)N[C@@H](Cc1ccccc1)C(=O)N[C@@H](Cc1ccccc1)C(=O)N1CCC[C@H]1C(=O)N[C@@H](CC(N)=O)C(=O)N[C@@H](CO)C(=O)N1CCC[C@H]1C(=O)N[C@@H](CO)C(=O)N1CCC[C@H]1C(=O)N[C@@H](Cc1ccccc1)C(=O)N[C@H](C(=O)N1CCC[C@H]1C(=O)N1CCC[C@H]1C(=O)N1CCC[C@H]1C(=O)N1CCC[C@H]1C(=O)N[C@@H](CCC(N)=O)C(=O)N[C@H](C(=O)N1CCC[C@H]1C(=O)N[C@@H](CO)C(=O)N1CCC[C@H]1C(=O)N[C@@H](Cc1c[nH]cn1)C(=O)NCC(=O)N[C@H](C(=O)O)[C@@H](C)O)[C@@H](C)O)[C@@H](C)O [Peptide P7] (H-AFFPNSPSPFTPPPPQTPSPHGT-OH) | > 200 µM | > 200 µM | > 200 µM | > 200 µM | > 200 µM | > 200 µM | > 200 µM | 15 µM | > 200 µM | > 200 µM | 13.2 µM | 13.3 µM | – | – | –
CC(C)C[C@H](NC(=O)[C@@H]1CCCN1C(=O)[C@@H]1CCCN1C(=O)[C@H](CO)NC(=O)[C@@H]1CCCN1C(=O)[C@H](CC(C)C)NC(=O)[C@H](Cc1c[nH]cn1)NC(=O)[C@@H](N)CCCNC(=N)N)C(=O)N[C@H](C(=O)N[C@@H](CCC(N)=O)C(=O)O)[C@@H](C)O [Peptide P8] (H-RHLPSPPLTQ-OH; N-terminus and C-terminus assumed) | > 200 µM | > 200 µM | > 200 µM | > 200 µM | > 200 µM | > 200 µM | > 200 µM | > 200 µM | > 200 µM | > 200 µM | > 200 µM | > 200 µM | – | – | –
CC[C@H](C)[C@H](N)C(=O)N[C@@H](C)C(=O)NCC(=O)N1CCC[C@H]1C(=O)N1CCC[C@H]1C(=O)N[C@H](C(=O)N1CCC[C@H]1C(=O)N1CCC[C@H]1C(=O)N[C@@H](CCCNC(=N)N)C(=O)N[C@@H](CCC(N)=O)C(=O)N[C@@H](CO)C(=O)O)C(C)C [Peptide P9] (H-IAGPPVPPRQS-OH) | > 200 µM | > 200 µM | > 200 µM | > 200 µM | 9 µM and 0.9 µM | > 200 µM | > 200 µM | > 200 µM | > 200 µM | > 200 µM | > 200 µM | > 200 µM | do not bind | do not bind | tightly bound
CC[C@H](C)[C@H](NC(=O)[C@H](Cc1c[nH]cn1)NC(=O)[C@@H](N)CCC(N)=O)C(=O)N1CCC[C@H]1C(=O)N[C@@H](CCCCN)C(=O)N[C@@H](CC(C)C)C(=O)N1CCC[C@H]1C(=O)N1CCC[C@H]1C(=O)N[C@@H](CCCCN)C(=O)N[C@H](C(=O)N[C@@H](Cc1ccc(O)cc1)C(=O)O)[C@@H](C)O [Peptide P10] (H-QHIPKLPPKTY-OH; N-terminus and C-terminus assumed) | > 200 µM | > 200 µM | > 200 µM | > 200 µM | > 200 µM | > 200 µM | > 200 µM | > 200 µM | > 200 µM | > 200 µM | > 200 µM | > 200 µM | – | – | –

Now from value to molecule:

Kd [1] | Kd [2] | Kd ([3]; read-out: Kd) | Kd ([4]; read-out: Kd) | Kd ([5]; read-out: Kd) | Kd (NPHP1 SH3 domain) | Kd [6] | Kd [7] | Kd [8] | Kd [9] | Kd [10] | Kd [11] | Kd [3] | Kd [4] | Kd [5] | SMILES
> 200 µM | > 200 µM | > 200 µM | 2 µM | 24.6 µM | > 200 µM | > 200 µM | > 200 µM | > 200 µM | > 200 µM | > 200 µM | > 200 µM | – | – | – | CC(C)[C@H](N)C(=O)N1CCC[C@H]1C(=O)N[C@H](C(=O)N1CCC[C@H]1C(=O)N1CCC[C@H]1C(=O)N1CCC[C@H]1C(=O)N[C@H](C(=O)N1CCC[C@H]1C(=O)N1CCC[C@H]1C(=O)N[C@@H](CCCNC(=N)N)C(=O)N[C@@H](CCCNC(=N)N)C(=O)N[C@@H](CCCNC(=N)N)C(=O)O)C(C)C)C(C)C [RP1, reference compound]
> 200 µM | 23 µM | > 200 µM | 1 µM | 2.5 µM | > 200 µM | > 200 µM | > 200 µM | 21 µM | > 200 µM | > 200 µM | > 200 µM | – | – | – | CC(C)[C@H](NC(=O)[C@@H]1CCCN1C(=O)[C@@H]1CCCN1C(=O)[C@H](C)NC(=O)[C@H](CCC(=O)O)NC(=O)[C@H](CS)NC(=O)[C@@H](N)CCCNC(=N)N)C(=O)N1CCC[C@H]1C(=O)N1CCC[C@H]1C(=O)N[C@@H](CCCNC(=N)N)C(=O)N[C@@H](CCCNC(=N)N)C(=O)N[C@@H](CCC(=O)O)C(=O)N[C@@H](CCCNC(=N)N)C(=O)NCC(=O)O [RP2, reference compound] (H-RCEAPPVPPRRERG-OH)
